Holding throughout (assay type): in vivo
The test system of data set [1] is Green Peach Aphid (Myzus persicae, Mixed Life Stages). Briefly: Green peach aphid, method a) (leaf dip, pepper plants). The note with it: 300 ppm; pepper plant leaves dipped; after 5 days. Here is the method: (§1) II.2 Green Peach Aphid (Myzus persicae, Mixed Life Stages)
(§2) The active compounds were formulated in 50:50 (v/v) acetone:water and 100 ppm nonionic surfactant (Kinetic®).
Pepper plants in the 2nd leaf-pair stage (variety ‘California Wonder’) were infested with approximately 40 laboratory-reared aphids by placing infested leaf sections on top of the test plants. The leaf sections were removed after 24 hours. The leaves of the intact plants were dipped into gradient solutions of the test compound and allowed to dry. Test plants were maintained under fluorescent light (24 hour photoperiod) at about 25° C. and 20-40% relative humidity. Aphid mortality on the treated plants, relative to mortality on check plants, was determined after 5 days.

Data set [2] deals with Cotton Aphid (Aphis gossypii, Mixed Life Stages). Briefly: Cotton aphid, method a) (cotyledon dip). The note with it: 300 ppm; cotton cotyledons dipped; counts after 5 days.
Description: (§3) II.1 Cotton Aphid (Aphis gossypii, Mixed Life Stages)
as §2
Cotton plants at the cotyledon stage (one plant per pot) were infested by placing a heavily infested leaf from the main colony on top of each cotyledon. The aphids were allowed to transfer to the host plant overnight, and the leaf used to transfer the aphids was removed. The cotyledons were dipped in the test solution and allowed to dry. After 5 days, mortality counts were made.

Data set [3] relates to Cowpea Aphid (Aphis craccivora). Briefly: Cowpea aphid, sprayed potted cowpea plants. The note with it: assessed after 24, 72 and 120 hours, read-out: mortality in comparison with untreated controls. The method, then:
II.3 Cowpea Aphid (Aphis craccivora)
The active compounds were formulated in 50:50 (v/v) acetone:water. The test solution was prepared at the day of use.
Potted cowpea plants colonized with 100-150 aphids of various stages were sprayed after the pest population had been recorded. Population reduction was assessed after 24, 72, and 120 hours.

The subject of data set [4] is Vetch Aphid (Megoura viciae). Briefly: Vetch aphid, bean leaf disks in microtiterplates. The following applies: foliar, 144 h, test solution 2500 mg/L, bean leaf disks sprayed with 2.5 μl, 6 days. Here is the method:
II.4 Vetch Aphid (Megoura viciae)
The active compounds were formulated in 1:3 (v/v) DMSO:water with different concentrations of formulated compounds.
Bean leaf disks were placed into microtiterplates filled with 0.8% agar-agar and 2.5 ppm OPUS™. The leaf disks were sprayed with 2.5 μl of the test solution and 5 to 8 adult aphids were placed into the microtiterplates which were then closed and kept at 23±1° C. and 50±5% relative humidity under fluorescent light for 6 days. Mortality was assessed on the basis of vital, reproduced aphids. Aphid mortality and fecundity was then visually assessed.

For data set [5], the system named is Green Peach Aphid (Myzus persicae, Mixed Life Stages). Briefly: Green peach aphid, method b) (electrostatic spray, bell pepper plants). The note with it: 120 h, infested bell pepper plants sprayed, after 5 days, read-out: mortality in comparison with untreated controls. The method, then: as §1
(§4) The active compounds were formulated in cyclohexanone as a 10,0000 ppm solution supplied in 1.3 ml ABgene® tubes. These tubes were inserted into an automated electrostatic sprayer equipped with an atomizing nozzle and they served as stock solutions for which lower dilutions were made in 50% acetone:50% water (v/v). A nonionic surfactant (Kinetic®) was included in the solution at a volume of 0.01% (v/v).
Bell pepper plants at the first true-leaf stage were infested prior to treatment by placing heavily infested leaves from the main colony on top of the treatment plants. Aphids were allowed to transfer overnight to accomplish an infestation of 30-50 aphids per plant and the host leaves were removed. The infested plants were then sprayed by an automated electrostatic plant sprayer equipped with an atomizing spray nozzle. The plants were dried in the sprayer fume hood, removed, and then maintained in a growth room under fluorescent lighting in a 24 hour photoperiod at 25° C. and 20-40% relative humidity. Aphid mortality on the treated plants, relative to mortality on untreated control plants, was determined after 5 days.

In data set [6] the test system is Boll Weevil (Anthonomus grandis). Briefly: Boll weevil, insect diet with eggs in 24-well microtiter plates. The following applies: 120 h, test solution 2500 mg/L, 20 μl sprayed onto insect diet, 5 days, read-out: mortality (egg and larval). The method, then: II.5 Boll Weevil (Anthonomus grandis)
The compounds were formulated in 75:25 (v/v) water:DMSO.
For evaluating control of boll weevil (Anthonomus grandis) the test unit consisted of 24-well-microtiter plates containing an insect diet and 20-30 A. grandis eggs. Different concentrations of formulated compounds were sprayed onto the insect diet at 20 μl, using a custom built micro atomizer, at two replications. After application, the microtiter plates were incubated at 23±1° C. and 50±5% relative humidity for 5 days. Egg and larval mortality was then visually assessed.

Data set [7] has as its system Cotton Aphid (Aphis gossypii, Mixed Life Stages). Briefly: Cotton aphid, method b) (electrostatic spray). The following applies: 120 h, infested cotton plants sprayed, after 5 days, read-out: mortality in comparison with untreated controls. Here is the method:
as §3, §4
Cotton plants at the cotyledon stage were infested with aphids prior to treatment by placing a heavily infested leaf from the main aphid colony on top of each cotyledon. Aphids were allowed to transfer overnight to accomplish an infestation of 80-100 aphids per plant and the host leaf was removed. The infested plants were then sprayed by an automated electrostatic plant sprayer equipped with an atomizing spray nozzle. The plants were dried in the sprayer fume hood, removed from the sprayer, and then maintained in a growth room under fluorescent lighting in a 24 hour photoperiod at 25° C. and 20-40% relative humidity. Aphid mortality on the treated plants, relative to mortality on untreated control plants, was determined after 5 days.

The subject of data set [8] is Green Peach Aphid (Myzus persicae). Briefly: Green peach aphid through systemic means, artificial diet under membrane. The note with it: 72 h, pipetted into aphid diet, 3 days, read-out: mortality in comparison with untreated controls. The source says: II.6 Activity Against Green Peach Aphid (Myzus persicae)
For evaluating control of green peach aphid (Myzus persicae) through systemic means the test unit consisted of 96-well-microtiter plates containing liquid artificial diet under an artificial membrane.
The compounds were formulated using a solution containing 75% v/v water and 25% v/v DMSO. Different concentrations of formulated compounds were pipetted into the aphid diet, using a custom built pipetter, at two replications. After application, 5 to 8 adult aphids were placed on the artificial membrane inside the microtiter plate wells. The aphids were then allowed to suck on the treated aphid diet and incubated at about 23+1° C. and about 50+5% relative humidity for 3 days. Aphid mortality and fecundity was then visually assessed.

The test system of data set [9] is Green Peach Aphids (Myzus persicae). Briefly: Hydroponic test against green peach aphids (bare root pepper plants). The note with it: bare roots immersed 24 hours, assay 3 days, read-out: mortality in comparison with untreated controls. Here is the method:
II.9 Activity in the Hydroponic Tests Against Green Peach Aphids (Myzus persicae)
Green pepper plants (Capsicum annuum L., variety ‘California Wonder’) were grown in the greenhouse from seed to the second true leaf stage (BBCH 12) in Scott's Metro-Mix® 360 (1 to 2 plants per 2¼″ square pot). Cotyledon leaves were removed and roots were rinsed in tap water until free of soil. The roots were kept moist under a layer of wet paper toweling until all plants had been prepared.
(§5) A 3,400 ppm stock solution was prepared of each test compound using reagent grade acetone as the solvent. Subsequent dilutions of 100 and 10 ppm were prepared from this stock with final dilutions in deionized water in 100 ml amber glass bottles. One bare root plant was placed in each bottle using a foam plug section to centrally secure the stem in the bottleneck. The bare roots were fully-immersed in the test suspensions. Host plants were placed in a plant growth room under continuous GroLux® fluorescent lighting (40 Watt), for 24 hours at 25±2° C. and 20-40% relative humidity.
After exposure of the bare roots to the test suspensions, pieces of pepper plants infested with green peach aphid (Myzus persicae) were placed on top of the test foliage. Insects were allowed to transfer from the host leaves to accomplish an infestation of 40-50 insects per plant. The assay was allowed to run for 3 days in the same growth room as used previously. Assessments included estimates of aphid population density reduction relative to the average density of aphids on the untreated control plants. Phytotoxic responses of the host plants were also recorded at this time.

Data set [10] has as its system Cotton Aphids (Aphis gossypii). Briefly: Hydroponic test against cotton aphids (bare root cotton plants). The note with it: bare roots immersed 24 hours, assay 3 days, read-out: mortality in comparison with untreated controls. Here is the method: II.10 Activity in the Hydroponic Tests Against Cotton Aphids (Aphis gossypii)
Cotton plants (Gossypium hirsutum, variety ‘Sure Grow 747’) were grown in the greenhouse from seed to the second true leaf stage (BBCH 12) in Scott's Metro-Mix® 360 (1 to 2 plants per 2¼″ square pot). Cotyledon leaves were removed and roots were rinsed in tap water until free of soil. The roots were kept moist under a layer of wet paper toweling until all plants had been prepared.
as §5
After exposure of the bare roots to the test suspensions, pieces of cotton plants infested with cotton aphids (Aphis gossypi) were placed on top of the test foliage. Insects were allowed to transfer from the host leaves to accomplish an infestation of 40-50 insects per plant. […] Phytotoxic responses of the host plants were also recorded at this time.

Data set [11] deals with Silverleaf Whitefly (Bemisia argentifolii, Adult). Briefly: Silverleaf whitefly, sprayed cotton plants. The following applies: 72 h, 3 days after treatment, read-out: mortality in comparison with untreated controls. The method, then:
II.7 Silverleaf Whitefly (Bemisia argentifolii, Adult)
as §4
Cotton plants at the cotyledon stage (one plant per pot) were sprayed by an automated electrostatic plant sprayer equipped with an atomizing spray nozzle. The plants were dried in the sprayer fume hood and then removed from the sprayer. Each pot was placed into a plastic cup and 10 to 12 whitefly adults (approximately 3-5 days old) were introduced. The insects were collected using an aspirator and 0.6 cm, nontoxic Tygon® tubing (R-3603) connected to a barrier pipette tip. The tip, containing the collected insects, was then gently inserted into the soil containing the treated plant, allowing insects to crawl out of the tip to reach the foliage for feeding. Cups were covered with a reusable screened lid (150-micron mesh polyester screen PeCap from Tetko, Inc.). […] Mortality was assessed 3 days after treatment, compared to untreated control plants.

The mortality is the share of the test organisms that died.

Take `Cn1cc(-c2nncn2-c2cccnc2)c(C(F)(F)F)n1` [Example 1]: the “mortality in comparison with untreated controls” value in [1] is given as “at least 90%”; in [2], “at least 75%”.

On to `Cc1c(-c2nncn2-c2cccnc2)cnn1CC(F)(F)F` [Example 2, 3-{3-[5-Methyl-1-(2,2,2-trifluoroethyl)-1H-pyrazol-4-yl]-[1,2,4]triazol-4-yl}pyridine], for which the mortality at 500 ppm in [3] is no less than 75%.

In data set [4], `Cc1c(-c2nc(-c3cccnc3)co2)cnn1CC(F)(F)F` [Example 4, 3-{2-[5-Methyl-1-(2,2,2-trifluoroethyl)-1H-pyrazol-4-yl]-oxazol-4-yl}pyridine] returned a mortality at 2500 µg/mL of no less than 90%.

With `Cc1c(-c2nnc(-c3cccnc3)o2)cnn1CC(F)(F)F` [Example 14, 3-{5-[5-Methyl-1-(2,2,2-trifluoroethyl)-1H-pyrazol-4-yl]-[1,3,4]oxadiazol-2-yl}pyridine], the mortality at 300 ppm in data set [5] and in data set [7] was no less than 75% throughout. For the same compound, in data set [3], the mortality at 500 ppm was no less than 75%. In data set [6], the mortality at 2500 µg/mL is no less than 50%.

On to `Cc1c(-c2nnc(-c3cccnc3)s2)cnn1CC(F)(F)F` [Example 15, 3-{5-[5-Methyl-1-(2,2,2-trifluoroethyl)-1H-pyrazol-4-yl]-[1,3,4]thiadiazol-2-yl}pyridine], for which the mortality at 2500 µg/mL was no less than 90% in data set [4] and no less than 50% in [6]. Also, the mortality at 300 ppm in data set [5] and in data set [7] was no less than 75% in each case. Also, in data set [8], the mortality at 2500 ppm stood at 100%. Further, the mortality at 500 ppm in [3] is no less than 75%. Besides, the mortality at 100 ppm in data set [9] was no less than 75%.

As to `Cc1c(C2=NCCN2c2cccnc2)cnn1CC(F)(F)F` [Example 18, 3-{2-[5-Methyl-1-(2,2,2-trifluoroethyl)-1H-pyrazol-4-yl]-4,5-dihydroimidazol-1-yl}pyridine], the mortality at 300 ppm in [5] and in data set [7] was no less than 75% throughout. Further, the mortality at 2500 ppm in data set [8] is 100%. Also, the mortality at 500 ppm in data set [3] is no less than 75%. The mortality at 100 ppm in data set [10] and in [9] was no less than 75% each time.

On to `Cc1c(-c2nccn2-c2cccnc2)cnn1CC(F)(F)F` [Example 20, 3-{2-[5-Methyl-1-(2,2,2-trifluoroethyl)-1H-pyrazol-4-yl]imidazol-1-yl}pyridine], for which the mortality at 2500 µg/mL in data set [4] was no less than 90%. In addition, the mortality at 300 ppm in data set [5] and in [7] was no less than 75% in each case. The mortality at 2500 ppm in data set [8] came to 100%. The mortality at 500 ppm in data set [3] and in data set [11] was no less than 75% each time. The mortality at 100 ppm in data set [10] and in [9] was no less than 75% each time.

`Cc1c(-c2nc(-c3cccnc3)nn2C)cnn1CC(F)(F)F` [Example 38, 3-{1-methyl-5-[5-methyl-1-(2,2,2-trifluoroethyl)-1H-pyrazol-4-yl]-1H-[1,2,4]triazol-3-yl}pyridine]: in data set [6], the mortality at 2500 µg/mL was no less than 50%.

Take `Cc1c(-c2noc(=O)n2-c2cccnc2)cnn1CC(F)(F)F` [Example 39, 3-{3-[5-Methyl-1-(2,2,2-trifluoroethyl)-1H-pyrazol-4-yl]-4H-[1,2,4]oxadiazol-5-on-4-yl}pyridine]: the mortality at 2500 µg/mL in [4] is no less than 90%. Also, the mortality at 2500 ppm in data set [8] was 100%. Also, the mortality at 500 ppm in [3] is no less than 75%.
